The text below walks through data of patent US8536199B2, “Oral combination of vitamins” (priority 2008, dated 2013).

The structures appear in SMILES notation.

In the test the test system is pregnant women in first trimester (nausea and vomiting, morning sickness). Nature of the test: Treatment of morning sickness in pregnant women with chewable tablets (volunteer reports). It is filed as in vivo, human. The note with it: volunteer 8, recalled from their first pregnancy. The source says:
A group of pregnant women were provided with the tablets, as prepared in Example 3, and were advised to take one to two tablets per day.

In the case of `Cc1ncc(CO)c(CO)c1O` [vitamin B6, pyridoxine], the “Reported effect of vitamin B6 injections on nausea of pregnancy” value is “did not feel helped”.
